Results: ChEMBL document CHEMBL4000149, “The effect of glycine replacement with flexible ω-amino acids on the antimicrobial and haemolytic activity of an amphipathic cyclic heptapeptide” (Eur J Med Chem, 2015)
≈ marks a conversion by molar mass, not a printed value. Numbered stars: 1 amine (or outer) side, 2 acyl side, 3 side chain; on linkers, the order of the positions; unused ones are H or OH. Bridge positions count the residues as written; N and C are the ends. Square brackets hold non-standard residues; d marks the D form. Peptide text beside a SMILES is read from it. ξ: configuration not given here. 2Nal = N[C@@H](Cc1ccc2ccccc2c1)C(=O)O; X1 = NC(CCN[*:2])C(=O)[*:1]; ξAoc(2) = CCCCCCC(N)C(=O)O; ξDab = NCCC(N)C(=O)O; GABA = NCCCC(=O)O

Key:
Klebsiella pneumoniae = assay: Antimicrobial activity against multidrug-resistant Klebsiella pneumoniae ATCC 700603 by tube dilution method; type: functional
Escherichia coli = assay: Antimicrobial activity against Escherichia coli ATCC 25922 by tube dilution method; type: functional
[1] = Toxicity in human erythrocytes assessed as hemolysis at 150 uM after 1 hr; type: cell-based, Erythrocyte; conditions: read-out: Activity
Staphylococcus aureus = assay: Antimicrobial activity against methicillin-resistant Staphylococcus aureus ATCC 33591 by tube dilution method; type: functional
Enterococcus faecium = assay: Antimicrobial activity against vancomycin-resistant Enterococcus faecium ATCC 700221 by tube dilution method; type: functional
Candida albicans = assay: Antifungal activity against Candida albicans ATCC 200955 by tube dilution method; type: functional
Pseudomonas aeruginosa = assay: Antimicrobial activity against Pseudomonas aeruginosa ATCC 27853 by tube dilution method; type: functional
[2] = Toxicity in human erythrocytes assessed as hemolysis after 1 hr; type: cell-based, Erythrocyte
Acinetobacter baumannii = assay: Antimicrobial activity against multidrug-resistant Acinetobacter baumannii ATCC BAA-1605 by tube dilution method; type: functional

Compound | MIC (Klebsiella pneumoniae) [µM] | MIC (Escherichia coli) [µM] | hemolysis at 1 h, 150 µM [1] [%] | MIC (Staphylococcus aureus) [µM] | MIC (Enterococcus faecium) [µM] | MIC (Candida albicans) [µM] | MIC (Pseudomonas aeruginosa) [µM] | EC50 at 1 hr [2] [µM] | MIC (Acinetobacter baumannii) [µM]
CC(C)C[C@@H]1NC(=O)CNC(=O)[C@H](Cc2ccc3ccccc3c2)NC(=O)[C@H](CCCNC(=N)N)NC(=O)[C@H](CC(C)C)NC(=O)[C@H](Cc2ccc3ccccc3c2)NC(=O)[C@H](CCCNC(=N)N)NC1=O | 128 (≈ 127 µg/mL) | 32 (≈ 31.7 µg/mL) | 27 | 8 (≈ 7.92 µg/mL) | 8 (≈ 7.92 µg/mL) | 16 (≈ 15.8 µg/mL) | 64 (≈ 63.4 µg/mL) | 215 | 128 (≈ 127 µg/mL)
CCCCCCC1NC(=O)[C@H](Cc2ccc3ccccc3c2)NC(=O)[C@H](CCCNC(=N)N)NC(=O)[C@H](CC(C)C)NC(=O)CNC(=O)[C@H](Cc2ccc3ccccc3c2)NC(=O)[C@H](CCCNC(=N)N)NC1=O (stereo not given in full) | 16 (≈ 16.3 µg/mL) | 16 (≈ 16.3 µg/mL) | 100 | 4 (≈ 4.07 µg/mL) | 2 (≈ 2.04 µg/mL) | 4 (≈ 4.07 µg/mL) | 32 (≈ 32.6 µg/mL) | 33 | 16 (≈ 16.3 µg/mL)
CCCCCC[C@H]1NC(=O)[C@H](Cc2ccc3ccccc3c2)NC(=O)[C@H](CCCNC(=N)N)NC(=O)[C@H](CC(C)C)NC(=O)CNC(=O)[C@H](Cc2ccc3ccccc3c2)NC(=O)[C@H](CCCNC(=N)N)NC1=O | 64 (≈ 65.2 µg/mL) | 32 (≈ 32.6 µg/mL) | 100 | 8 (≈ 8.15 µg/mL) | 8 (≈ 8.15 µg/mL) | 16 (≈ 16.3 µg/mL) | 64 (≈ 65.2 µg/mL) | 55 | 32 (≈ 32.6 µg/mL)
CC(C)C[C@@H]1NC(=O)CNC(=O)[C@@H](Cc2ccc3ccccc3c2)NC(=O)[C@H](CCCNC(=N)N)NC(=O)[C@H](CC(C)C)NC(=O)[C@H](Cc2ccc3ccccc3c2)NC(=O)[C@H](CCCNC(=N)N)NC1=O | > 128 | 128 (≈ 127 µg/mL) | < 8 | 32 (≈ 31.7 µg/mL) | 16 (≈ 15.8 µg/mL) | 64 (≈ 63.4 µg/mL) | > 128 | > 150 | 128 (≈ 127 µg/mL)
CCCCCCC1NC(=O)[C@@H](Cc2ccc3ccccc3c2)NC(=O)[C@H](CCCNC(=N)N)NC(=O)[C@H](CC(C)C)NC(=O)CNC(=O)[C@H](Cc2ccc3ccccc3c2)NC(=O)[C@H](CCCNC(=N)N)NC1=O (stereo not given in full) | 64 (≈ 65.2 µg/mL) | 32 (≈ 32.6 µg/mL) | 92 | 8 (≈ 8.15 µg/mL) | 8 (≈ 8.15 µg/mL) | 16 (≈ 16.3 µg/mL) | 64 (≈ 65.2 µg/mL) | 55 | 64 (≈ 65.2 µg/mL)
CC(C)C[C@@H]1NC(=O)[C@H](Cc2ccc3ccccc3c2)NC(=O)[C@H](CCCNC(=N)N)NC(=O)[C@H](CC(C)C)NC(=O)[C@@H](N)CCCCNC(=O)[C@H](Cc2ccc3ccccc3c2)NC(=O)[C@H](CCCNC(=N)N)NC1=O (H-KLR[2Nal]LR[2Nal]; lactam 1-C) | 32 (≈ 34 µg/mL) | 32 (≈ 34 µg/mL) | 51 | 8 (≈ 8.49 µg/mL) | 4 (≈ 4.25 µg/mL) | 8 (≈ 8.49 µg/mL) | 32 (≈ 34 µg/mL) | 150 | 32 (≈ 34 µg/mL)
CC(C)C[C@@H]1NC(=O)C(N)CCNC(=O)[C@H](Cc2ccc3ccccc3c2)NC(=O)[C@H](CCCNC(=N)N)NC(=O)[C@H](CC(C)C)NC(=O)[C@H](Cc2ccc3ccccc3c2)NC(=O)[C@H](CCCNC(=N)N)NC1=O (stereo not given in full) (H-[ξDab]LR[2Nal]LR[2Nal]; lactam 1-C) | 64 (≈ 66.1 µg/mL) | 64 (≈ 66.1 µg/mL) | < 8 | 32 (≈ 33.1 µg/mL) | 8 (≈ 8.27 µg/mL) | 16 (≈ 16.5 µg/mL) | 128 (≈ 132 µg/mL) | 265 | > 128
CC(C)C[C@@H]1NC(=O)C(N)CCNC(=O)C(N)CCNC(=O)[C@H](Cc2ccc3ccccc3c2)NC(=O)[C@H](CCCNC(=N)N)NC(=O)[C@H](CC(C)C)NC(=O)[C@H](Cc2ccc3ccccc3c2)NC(=O)[C@H](CCCNC(=N)N)NC1=O (stereo not given in full) (H-[ξDab]LR[2Nal]LR[2Nal]; linker 1-C via X1) | 128 (≈ 145 µg/mL) | 32 (≈ 36.3 µg/mL) | < 8 | 16 (≈ 18.1 µg/mL) | 8 (≈ 9.07 µg/mL) | 16 (≈ 18.1 µg/mL) | 32 (≈ 36.3 µg/mL) | > 450 | 128 (≈ 145 µg/mL)
CC(C)C[C@@H]1NC(=O)C(N)CCNC(=O)CCCNC(=O)[C@H](Cc2ccc3ccccc3c2)NC(=O)[C@H](CCCNC(=N)N)NC(=O)[C@H](CC(C)C)NC(=O)[C@H](Cc2ccc3ccccc3c2)NC(=O)[C@H](CCCNC(=N)N)NC1=O (stereo not given in full) (H-[ξDab]LR[2Nal]LR[2Nal][GABA]; lactam 1-C) | 64 (≈ 71.6 µg/mL) | 32 (≈ 35.8 µg/mL) | < 8 | 8 (≈ 8.95 µg/mL) | 8 (≈ 8.95 µg/mL) | 32 (≈ 35.8 µg/mL) | 64 (≈ 71.6 µg/mL) | 420 | 64 (≈ 71.6 µg/mL)
CCCCCCC1NC(=O)[C@H](Cc2ccc3ccccc3c2)NC(=O)[C@H](CCCNC(=N)N)NC(=O)[C@H](CC(C)C)NC(=O)C(N)CCNC(=O)C(N)CCNC(=O)[C@H](Cc2ccc3ccccc3c2)NC(=O)[C@H](CCCNC(=N)N)NC1=O (stereo not given in full) (H-[ξDab]LR[2Nal][ξAoc(2)]R[2Nal]; linker 1-C via X1) | 64 (≈ 74.3 µg/mL) | 16 (≈ 18.6 µg/mL) | 100 | 4 (≈ 4.65 µg/mL) | 4 (≈ 4.65 µg/mL) | 8 (≈ 9.29 µg/mL) | 32 (≈ 37.2 µg/mL) | 55 | 64 (≈ 74.3 µg/mL)
CC(C)C[C@@H]1NC(=O)CCCNC(=O)C(N)CCNC(=O)[C@H](Cc2ccc3ccccc3c2)NC(=O)[C@H](CCCNC(=N)N)NC(=O)[C@H](CC(C)C)NC(=O)[C@H](Cc2ccc3ccccc3c2)NC(=O)[C@H](CCCNC(=N)N)NC1=O (stereo not given in full) (H-[ξDab][GABA]LR[2Nal]LR[2Nal]; lactam 1-C) | 32 (≈ 35.8 µg/mL) | 32 (≈ 35.8 µg/mL) | 12 | 16 (≈ 17.9 µg/mL) | 8 (≈ 8.95 µg/mL) | 16 (≈ 17.9 µg/mL) | 64 (≈ 71.6 µg/mL) | 255 | 32 (≈ 35.8 µg/mL)
CC(C)C[C@@H]1NC(=O)CNC(=O)[C@H](Cc2ccccc2)NC(=O)[C@H](CCCCN)NC(=O)[C@H](CC(C)C)NC(=O)[C@H](Cc2ccccc2)NC(=O)[C@H](CCCCN)NC1=O (cyclo(FGLKFLK)) | > 128 | 128 (≈ 107 µg/mL) | < 8 | > 128 | 128 (≈ 107 µg/mL) | > 128 | > 128 | > 150 | 128 (≈ 107 µg/mL)
CC(C)C[C@@H]1NC(=O)CNC(=O)[C@H](Cc2c[nH]c3ccccc23)NC(=O)[C@H](CCCCN)NC(=O)[C@H](CC(C)C)NC(=O)[C@H](Cc2c[nH]c3ccccc23)NC(=O)[C@H](CCCCN)NC1=O (cyclo(GLKWLKW)) | > 128 | 128 (≈ 117 µg/mL) | < 8 | > 128 | 128 (≈ 117 µg/mL) | > 128 | > 128 | > 150 | 128 (≈ 117 µg/mL)
CC(C)C[C@@H]1NC(=O)CNC(=O)[C@H](Cc2c[nH]c3ccccc23)NC(=O)[C@H](CCCNC(=N)N)NC(=O)[C@H](CC(C)C)NC(=O)[C@H](Cc2c[nH]c3ccccc23)NC(=O)[C@H](CCCNC(=N)N)NC1=O (cyclo(GLRWLRW)) | > 128 | > 128 | < 8 | 128 (≈ 124 µg/mL) | 64 (≈ 62 µg/mL) | > 128 | > 128 | > 150 | > 128
CC(C)C[C@@H]1NC(=O)CNC(=O)[C@H](Cc2ccc3ccccc3c2)NC(=O)[C@H](CCCCN)NC(=O)[C@H](CC(C)C)NC(=O)[C@H](Cc2ccc3ccccc3c2)NC(=O)[C@H](CCCCN)NC1=O (cyclo([2Nal]GLK[2Nal]LK)) | > 128 | 128 (≈ 120 µg/mL) | 13 | 32 (≈ 29.9 µg/mL) | 16 (≈ 14.9 µg/mL) | 64 (≈ 59.8 µg/mL) | 128 (≈ 120 µg/mL) | > 150 | > 128
